Assay results taken from US8175815B2, “Method for assessing absorption properties of low solubility compounds” (F. Hoffmann-La Roche AG, priority 2006, dated 2012).

Assays:
[1] = mice, oral, cited from earlier work
[2] = Double-Sink PAMPA permeability with and without excipients
[3] = mice; +HP-β-CD / no excip.
[4] = flux function combining permeability and solubility measurement results; conditions: for flux increase factor: 1% HP-β-CD vs excipient-free; for net flux effect due to 1% HP-β-CD: pH 5.0, 6.2, 7.4, FIG. 13
[5] = equilibrium solubility-pH, direct-UV microtitre plate (μSOL Evolution) with and without excipients
[6] = PAMPA, 30 min, 50 μM
[7] = 18 h
physchem [8] = assay: physchem
physchem [9] = conditions: pKa^APP ± SD
[10] = buffer + 1% w/v HP-b-CD, * = anticipated salt limit exceeded
[11] = buffer, * = anticipated salt limit exceeded
[12] = apparent/true molecular weight, 40 μm ABL assumed, 0 mM NaTC (first value)

In the case of `CCCSc1ccc2nc(NC(=O)OC)[nH]c2c1` [albendazole], the “Cmax +HP-β-CD” value ([1]; HP-β-CD (20% w/v)) is given as 390 ng/mL, the “Tmax +HP-β-CD” value ([1]; HP-β-CD (20% w/v)) is given as 19.8 min and the Cmax no excip. ([1]; suspension of excipient-free drug) is given as 90 ng/mL. The Tmax no excip. [1] was 45 min, the Po ([2]; buffer) was 4.28 ± 1.59 E−04 cm s^−1 and the Po ([2]; buffer + 1% w/v HP-b-CD) was 3.12 ± 0.30 E−05 cm s^−1. For the same compound, the “AUC Ratio” value [3] was 1.4, the “Cmax Ratio” value [3] was 4.3 and the “Tmax Ratio” value [3] was 0.4. It also gave a flux increase factor ([4]; pH 5.0) of 3.0, a flux increase factor ([4]; pH 6.2) of 3.1 and a flux increase factor ([4]; pH 7.4) of 3.1. For the same compound, the “average flux gain factor” value ([4]; 1% HP-β-CD, average over pH 5.0, 6.2, 7.4) was 3.1, the “net flux effect due to 1% HP-β-CD” value [4] was “gains, uniformly at the three pH values of interest” and the “So^APP” value ([5]; buffer) was 0.88 ± 0.07 µg/mL. The “S(pH 7.4)” value ([5]; buffer + 1% w/v HP-b-CD) was 34 μg mL^−1, the “So^APP” value ([5]; buffer + 1% w/v HP-b-CD) was 34 ± 1 µg/mL and the “S(pH 5.0)” value [5, 10] was 34 μg mL^−1. The “S(pH 6.2)” value [5, 10] was 34 μg mL^−1, the “S(pH 5.0)” value [5, 11] was 1.0 μg mL^−1 and the “S(pH 6.2)” value [5, 11] was 0.89 μg mL^−1. The “S(pH 7.4)” value [5, 11] was 0.88 μg mL^−1.
With `CCCCc1oc2ccccc2c1C(=O)c1cc(I)c(OCCN(CC)CC)c(I)c1` [amiodarone] the “net flux effect due to 1% HP-β-CD” value [4] was “cross-over pattern as a function of pH”.
With `COc1ccc(CCN2CCC(Nc3nc4ccccc4n3Cc3ccc(F)cc3)CC2)cc1` [astemizole] the “PABL 0 mM NaTC” value [6] was 1080, the “PABL 3 mM NaTC” value [6] was 561 and the “PABL 15 mM NaTC” value [6] was 9. The “determined ABL thickness hABL” value [6] was under 50 μm, the “So ± SD” value [7] was 4.0 ± 2.9 µg/mL and the pKa (physchem [8]) was 5.99 ± 0.06. The pKa at 18 h (physchem [9]) was 9.1 ± 0.5, the “MW*/MW” value ([2]; 3 mM NaTC (second value)) was 5 and the “MW*/MW” value ([2]; 15 mM NaTC (third value)) was 56000. The “MW*/MW” value [2, 12] was about 1.
For `Clc1ccccc1C(c1ccccc1)(c1ccccc1)n1ccnc1` [clotrimazole], the “PABL 0 mM NaTC” value [6] was 2400, the “PABL 3 mM NaTC” value [6] was 604 and the “determined ABL thickness hABL” value [6] was under 50 μm. The pKa (physchem [8]) was 6.02 ± 0.05, the pKa at 18 h (physchem [9]) was 7.4 ± 1.1 and the “MW*/MW” value ([2]; 3 mM NaTC (second value)) was 5. The “MW*/MW” value [2, 12] was under 1.
